Results reported in patent EP0429333B1, “Process for producing oxazopyrroloquinolines, novel oxazopyrroloquinolines, and use of oxazopyrroloquinolines” (priority 1989, dated 1991).

Biological target: T1, aldose reductase of rabbit lens (Oryctolagus cuniculus, UniProt P15122)
T1 construct: to obtain electrophoretically homogeneous aldose reductase; from tissue; host or cells: rabbit lens
Assay: Inhibitory effect on aldose reductase of lens
Type: biochemical
Details: read-out: Degree of inhibition for aldose reductase (%)
Summary of the method: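 Electrophoretically homogeneous aldose reductase purified from rabbit lens was assayed with NADPH (0.05 ml of 3 mM stock) and DL-glyceraldehyde in 0.1 M phosphate buffer pH 6.2 at 25 °C. Activity was followed as the decrease in A340 over time. Inhibition was calculated against activity without inhibitor, with compounds tested at various concentrations.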

`O=C(O)c1cc(C(=O)O)c2c(n1)c1ncoc1c1cc(C(=O)O)[nH]c12` [OPQ, oxazopyrroloquinoline] showed an inhibition at 0.1 µM (concentration 1x10^-7 M) of 43.2%, an inhibition at 0.2 µM (concentration 2x10^-7 M) of 54.5% and an inhibition at 0.5 µM (concentration 5x10^-7 M) of 63.1%. It also gave an inhibition at 0.05 µM (concentration 5x10^-8 M) of 31%.
